Laboratory results taken from US10603335B2, “Cancer treatment combination compositions, methods and uses” (Board of Supervisors of Louisiana State University and …, priority 2016, dated 2020).

Legend:
[1] = tested on: cleaved PARP, XIAP and cIAP2 in MiaPaca-2 cells; test: Western blot of apoptosis markers and inhibitors of apoptosis, MiaPaca-2; assay type: cell-based, human; conditions: for XIAP and c-IAP2 protein levels: 24 h
Experimental: (§1) Pancreatic cells were collected after trypsinization and seeded in 12-well plates for 24 h before treatments. Treatments were performed as described in the Figure legends. Following treatment, whole cell lysates were collected in Laemmli buffer and analyzed by Western blot. The following primary antibodies were used: XIAP, c-IAP2, cleaved PARP, Caspase-3 (all from Cell Signaling), actin (Santa Cruz) and LHRHR (Abcam).
(§2) Western blot analysis. Actin, GAPDH and Ponceau staining were used as loading controls. Gemcitabine was diluted in water. Curcumin and LHRH-curcumin were diluted in DMSO. Cells were treated as follows:
(§3) Western blot analysis. Actin, GAPDH and Ponceau staining were used as loading controls. Gemcitabine was diluted in water. Curcumin and LHRH-curcumin were diluted in DMSO. The cells were treated as follows:
(§4) Western blot analysis. Actin was used as loading control. Both gemcitabine and LHRH-curcumin were diluted in water.

[2] = tested on: cleaved PARP, XIAP and cIAP2 in Panc-1 cells; test: Western blot of apoptosis markers and inhibitors of apoptosis, Panc-1; assay type: cell-based; conditions: for XIAP and c-IAP2 protein levels: 24 h
Experimental: as §1, §2, §3, §4

[3] = tested on: cleaved PARP, XIAP and cIAP2 in AsPC-1 cells; test: Western blot of apoptosis markers and inhibitors of apoptosis, AsPC-1; assay type: cell-based; conditions: for XIAP and c-IAP2 protein levels: 24 h
Experimental: as §1, §2
(§5) Western blot analysis. Actin, GAPDH and Ponceau staining were used as loading controls. Gemcitabine was diluted in water. Curcumin and LHRH-curcumin were diluted in DMSO.

[4] = tested on: cleaved PARP, XIAP and cIAP2 in BxPC-3 cells; test: Western blot of apoptosis markers and inhibitors of apoptosis, BxPC-3; assay type: cell-based; conditions: for XIAP and c-IAP2 protein levels: 24 h
Experimental: as §1, §2, §5

[5] = tested on: XIAP, cIAP1 and cIAP2 mRNA in Panc-1 cells; test: Quantitative PCR of inhibitors of apoptosis, Panc-1; assay type: cell-based; conditions: 50 uM, 24 h post-treatment, relative to DMSO, GAPDH reference
Experimental: mRNA levels of XIAP, c-IAP1 and c-IAP2 were determined by quantitative real-time PCR using the SYBR Green Real-Time PCR Master Mix form ThermoFisher. Thermal cycling was carried out using the CFX system from BioRad under the following conditions: 95° C. for 10 min and 40 cycles at 95° C. for 15 s and 55° C. for 60 s. mRNA expression for any given gene is represented as comparative to the DMSO-treated cells. GAPDH was used as the housekeeping gene of reference.
GAPDH was used as a reference. Results presented in FIG. 12A (XIAP relative mRNA levels), FIG. 12B (cIAP1 relative mRNA levels), FIG. 12C (cIAP2 relative mRNA levels).

[6] = tested on: Panc-1 cells spheroids; test: 3D spheroid growth (IncuCyte ZOOM), Panc-1; assay type: cell-based; conditions: LHRH 30 μM, LHRH-curcumin 30 μM
Experimental: A protocol that enables the growth of identical size single cancer cell spheroids in Matrigel in 96 well plates has been developed.
Panc-1 and Mia-Paca-2 cells were grown in 10% FBS DMEM. Cells were collected after trypsinization and resuspended in phenol-red free DMEM with 10% FBS. Cells were labeled with CellTracker Red (Life Techmologies) for 5 minutes. After labeling cells were washed with PBS and transfer into 96-well Corning 7007 ULA round bottom plates at 1,000 cells/well in 100 μl phenol-red free media with 10% FBS and 5% Matrigel. […] Spheroids were grown at 37° C. and 5% CO2 in IncuCyte ZOOM (Essen Bioscience). Images were acquired every 4 h for a period of 120 h post-treatment and software analysis was design to identify the red object in the well. The data were expressed as fold increase in spheroids size at the end of the treatment using the “average red object area in the well” as determined by the IncuCyte software analysis. Reproducibility was confirmed in three independent experiments. Spheroids grew at a uniform rate (FIG. 1).

[7] = tested on: non-target control (NT) Panc-1 spheroides; test: 3D spheroid growth, non-target control (NT) Panc-1; assay type: cell-based; conditions: 30 μM
[8] = 50 uM in the presence of gemcitabine (5 uM)
[9] = curcumin, LHRH-curcumin 50 uM and 100 uM alone, gemcitabine alone
[10] = 24 h post-treatment, curcumin, LHRH-curcumin 10-100 uM, gemcitabine 1-20 uM

Molecule | XIAP and c-IAP2 protein levels [1, 8] | XIAP and c-IAP2 protein levels [1, 9] | apoptosis marker cleaved PARP [1, 10] | XIAP and c-IAP2 protein levels [2, 8] | XIAP and c-IAP2 protein levels [2, 9] | apoptosis marker cleaved PARP [2, 10] | XIAP and c-IAP2 protein levels [3, 8] | XIAP and c-IAP2 protein levels [3, 9] | apoptosis marker cleaved PARP [3, 10] | XIAP and c-IAP2 protein levels [4, 8] | XIAP and c-IAP2 protein levels [4, 9] | apoptosis marker cleaved PARP [4, 10] | mRNA levels of XIAP, cIAP1 and c-IAP2 [5] | spheroids growth [6] | spheroids growth [7]
COc1cc(/C=C/C(=O)CC(=O)/C=C/c2ccc(O)c(OC)c2)ccc1O [curcumin] | down-regulated | down-regulated | initiate apoptosis as illustrated by the presence of cleaved PARP | down-regulated | down-regulated | initiate apoptosis as illustrated by the presence of cleaved PARP | down-regulated | down-regulated | initiate apoptosis as illustrated by the presence of cleaved PARP | down-regulated | down-regulated | initiate apoptosis as illustrated by the presence of cleaved PARP | down-regulated | – | –
luteinizing hormone releasing hormone (EHWSYGLRPG) [LHRH, Gonadotropin-releasing hormone (GnRH, also called luteinizing hormone releasing hormone or LHRH), reference compound] | – | – | – | – | – | – | – | – | – | – | – | – | – | inhibitory effect on spheroids growth | inhibitory effect on NT Panc-1 spheroids growth
